Test results reported in paper PMC10178127, “Immunomodulatory Effects of the Pea Defensin Psd1 in the Caco-2/Immune Cells Co-Culture upon Candida albicans Infection” (International Journal of Molecular Sciences, 2023).

Test system: C. albicans v47a3
Test: Antifungal activity, microdilution method
Format: cell-based, Candida albicans
Experimental: Antifungal activity of recombinant Psd1 against C. albicans v47a3 was tested by the microdilution method using 96-well microplates mainly as described for this defensin in [15]. Yeast cells in half-modified YPD broth at a final concentration of 10^4 cells/mL were used. Final Psd1 concentrations in the wells were 100, 50, 25, 12.5, 6.25, 3.125, and 1.56 μM. Plates were incubated at 30 °C for 24 h. Yeast growth was estimated using an inverted microscope as well as by measuring the optical density at 540 nm. The percentage of growth inhibition was defined as growth inhibition(%) = ((Acontrol − Asample)/Acontrol) × 100%. All of the experiments were performed twice in triplicate.

Psd1: pea defensin from Pisum sativum (UNIPROT P81929), recombinant peptide overexpressed in Escherichia coli (KTCEHLADTYRGVCFTNASCDDHCKNKAHLISGTCHNWKCFCTQNC; UniProt P81929 1-46, looked up)
IC50 (C. albicans v47a3, 10^4 cells/mL, half-modified YPD broth, 30 °C, 24 h, OD 540 nm, twice in triplicate, read-out: concentration of 50% growth inhibition of yeast cells): 25 µM | effect on the morphology of the fungus (C. albicans v47a3, inverted microscope): did not affect the morphology of the fungus
